According to US20130165520A1, “Hybrid Molecule Having Mixed Retinoic Acid Receptor Agonism and Histone Deacetylase Inhibitory Properties” (priority 2010, published 2013):

Key:
[1] = system: NCI-H322M; assay: cells; settings: Homo sapiens, 48 h
[2] = system: SNB-75; assay: cells; settings: Homo sapiens, SNB-75, 48 h
[3] = system: HOP-92; settings: HOP-92 (Non-Small cell lung cancer); 48 h
[4] = system: NCI-H522; settings: NCI-H522 (Non-Small cell lung cancer); 48 h
[5] = system: SR; assay: cells; settings: Homo sapiens, 48 h
[6] = system: M14; settings: M14 (Melanoma); 48 h
[7] = system: K-562; assay: cells; settings: Homo sapiens, K562, 48 h
[8] = system: MOLT-4; settings: MOLT-4 (Leukemia); 48 h
[9] = system: MDA-MB-231/ATCC; assay: cells; settings: Homo sapiens, MDA-MB-231, 48 h
[10] = system: NCI-H226; settings: NCI-H226 (Non-Small cell lung cancer); 48 h
[11] = system: OVCAR-8; assay: cells; settings: Homo sapiens, OVCAR-8, 48 h
[12] = system: SK-MEL-5; settings: SK-MEL-5 (Melanoma); 48 h
[13] = system: HCT-116; assay: cells; settings: Homo sapiens, HCT-116, 48 h
[14] = system: SW-620; settings: SW-620 (Colon); 48 h
[15] = system: T-47D; assay: cells; settings: Homo sapiens, T47D, 48 h
[16] = system: SF-268; settings: SF-268 (CNS); 48 h
[17] = system: SF-268; assay: cells; settings: Homo sapiens, SF-268, 48 h
[18] = system: OVCAR-4; assay: cells; settings: Homo sapiens, OVCAR-4, 48 h
[19] = system: A498; assay: cells; settings: Homo sapiens, A498, 48 h
[20] = system: SK-MEL-2; settings: SK-MEL-2 (Melanoma); 48 h

CC1(C)CCC(C)(C)c2cc(-c3ccc4cc(C(=O)NO)ccc4c3)ccc21 [hybrid 3]
GI50 [1]: 0.446 µM | CC50 ([1]; read-out: LC50): 26.2 µM | GI50 [2]: 1.74 µM | CC50 ([2]; read-out: LC50): 24.9 µM | TGI [3]: 6.35 µM | TGI [4]: 3.59 µM | GI50 [5]: 0.335 µM | CC50 ([5]; read-out: LC50): 7.64 µM | TGI [6]: 2.49 µM | GI50 [7]: 0.399 µM | CC50 ([7]; read-out: LC50): 5.51 µM | TGI [8]: 1.46 µM | GI50 [9]: 1.2 µM | CC50 ([9]; read-out: LC50): 12 µM | TGI [10]: 4.19 µM | GI50 [11]: 0.459 µM | CC50 ([11]; read-out: LC50): 5.12 µM | TGI [12]: 2.31 µM | GI50 [13]: 0.424 µM | CC50 ([13]; read-out: LC50): 4.03 µM | TGI [14]: 1.94 µM | GI50 [15]: 1.27 µM | CC50 ([15]; read-out: LC50): 28 µM | TGI [16]: 1.85 µM | GI50 [17]: 0.533 µM | CC50 ([17]; read-out: LC50): 5.05 µM | GI50 [18]: 0.533 µM | CC50 ([18]; read-out: LC50): 29.1 µM | GI50 [19]: 1.66 µM | CC50 ([19]; read-out: LC50): 8.71 µM | TGI [20]: 6.31 µM
